Reference: patent publication US9121026B2 (priority 2004, dated 2015)

System: RE700A e PCUP-HXT7 (ECFP)
Test: Growth inhibition of ECFP by 2-DG
Type: cell-based, Saccharomyces cerevisiae
Conditions: 20 h 28° C., maltose, in percent of growth of RE700A
Experimental: (A) RE700A, ECFP and ET[PDR] were incubated 20 h at 28° C. with maltose (2% (w/v)) as the sole carbon source in the presence of the indicated 2-DG concentrations. The optical density was measured at 600 nm every 15 minutes and the integral under the growth curve was calculated. Inhibition of growth of ECFP and ET[PDR] is shown in percent of growth of RE700A. Growth of ECFP was inhibited by 39% at 0.005% (w/v) 2-DG, by 78% at 0.01% (w/v) 2-DG, by 91% at 0.03% (w/v) 2-DG and by 93% at 0.05% (w/v) 2-DG. Growth of ET[PDR] was inhibited by 52% at 0.005% (w/v) 2-DG, by 87% at 0.01% (w/v) 2-DG, by 94% at 0.03% (w/v) 2-DG and by 96% at 0.05% (w/v) 2-DG.
Strain growth: The growth of the strains in liquid medium was determined by measuring the optical density at 600 nm. To obtain growth curves, measurements were performed every 15 min. Alternatively, start and endpoint (after 12-16 h) measurements were carried out.

`O=CC[C@@H](O)[C@H](O)[C@H](O)CO` [2-DG, 2-deoxy-glucose] showed an Inhibition of growth (0.005% (w/v) 2-DG) of 39%, an Inhibition of growth (0.01% (w/v) 2-DG) of 78% and an Inhibition of growth (0.03% (w/v) 2-DG) of 91%. It also gave an Inhibition of growth (0.05% (w/v) 2-DG) of 93%.
